Blank lines part the entries; values can stand above or below the compound they belong to.
Test: Powder dissolution / in vitro release rate of the pure active compound, phosphate buffer pH 7.4 USP XXIV, paddle process 100 rpm
Type: physicochemical
Settings: for Amount released [%] after 2 min: Table 3, ibuprofen crystallized by displacement precipitation; for Rate of dissolution (in words) / Active compound dissolved after 5 min / Active compound dissolved after 8 min: 3 l scale crystallizate
Description: The measurements of the release rate was carried out according to USP XXIV.
• 1. 80 g of ibuprofen are dissolved in 100 ml of isopropanol at 40° C. Precipitation is then carried out by addition of ice water (450 ml/stirrer speed 50 rpm) during the course of 70 min. During this process cooling to 10° C. takes place. The crystals are recovered by filtration and dried in vacuo. […] 3.2 g of sucrose monolaurate are added as an additive. Precipitation is then carried out by addition of ice water (450 ml/stirrer speed 200 rpm) during the course of 70 min. During this process cooling to 10° C. takes place. The crystals are recovered by filtration, washed with ice water (3×50 ml) and dried in vacuo. […] 8 g of Tween®80 are added as an additive. Precipitation is then carried out by addition of ice water (450 ml/stirrer speed 200 rpm) during the course of 70 min. During this process cooling to 10° C. takes place. The crystals are recovered by filtration, washed with ice water (3×50 ml) and dried in vacuo. […] 80 g of ibuprofen are dissolved in 100 ml of isopropanol at 40° C. 3 g of sucrose monolaurate are added as an additive. Precipitation is then carried out by addition of ice water (450 ml/stirrer speed 200 rpm) during the course of 70 min; during this process, cooling to 10° C. takes place; the crystals are recovered by filtration, washed with ice water (3×150 ml) and dried in vacuo.

[1] = Table 1, ibuprofen powder, time 0 min
[2] = Table 1, ibuprofen powder, time 2 min
[3] = Table 1, ibuprofen powder, time 5 min
[4] = Table 1, ibuprofen powder, time 8 min
[5] = Table 1, ibuprofen powder, time 10 min
[6] = Table 1, ibuprofen powder, time 15 min
[7] = Table 1, ibuprofen powder, time 20 min
[8] = Table 2, ibuprofen powder, time 0
[9] = Table 2, ibuprofen powder, time 2
[10] = Table 2, ibuprofen powder, time 5
[11] = Table 2, ibuprofen powder, time 8
[12] = Table 2, ibuprofen powder, time 10
[13] = Table 2, ibuprofen powder, time 15
[14] = Table 2, ibuprofen powder, time 20
[15] = powder dissolution, pure active compound, phosphate buffer pH 7.4 USP XXIV

- Rate of dissolution (in words): good rate of dissolution
Compound: CC(C)Cc1ccc(C(C)C(=O)O)cc1 (stereo not drawn) [Example 15, ibuprofen]

- Time after which a 100% release / dissolution is seen [15]: approximately 5 min
Compound: CC(C)Cc1ccc(C(C)C(=O)O)cc1 (stereo not drawn) [Example 18, ibuprofen]

- Amount released [%] [1]: 0.0%
- Amount released [%] [2]: 20.9%
- Amount released [%] [3]: 48.9%
- Amount released [%] [4]: 67.2%
- Amount released [%] [5]: 76.5%
- Amount released [%] [6]: 94.3%
- Amount released [%] [7]: 100.0%
Compound: CC(C)Cc1ccc(C(C)C(=O)O)cc1 (stereo not drawn) [Solvent change without addition, ibuprofen]

- Amount released [%] after 2 min: 100.8%
Compound: CC(C)Cc1ccc(C(C)C(=O)O)cc1 (stereo not drawn) [Suc. monolaurate + HPC, ibuprofen]

- Amount released [%] after 2 min: 98.9%
Compound: CC(C)Cc1ccc(C(C)C(=O)O)cc1 (stereo not drawn) [Suc. monolaurate + Klucel ® LF, ibuprofen]

- Amount released [%] after 2 min: 97.8%
Compound: CC(C)Cc1ccc(C(C)C(=O)O)cc1 (stereo not drawn) [Suc. monolaurate + Kollicoat ® IR, ibuprofen]

- Amount released [%] after 2 min: 100.4%
Compound: CC(C)Cc1ccc(C(C)C(=O)O)cc1 (stereo not drawn) [Suc. monolaurate + dextran 200, ibuprofen]

- Amount released [%] after 2 min: 100.1%
Compound: CC(C)Cc1ccc(C(C)C(=O)O)cc1 (stereo not drawn) [Suc. monolaurate + trehalose, ibuprofen]

Further lines, the compound ahead of its results:

Compound: CC(C)Cc1ccc(C(C)C(=O)O)cc1 (stereo not drawn) [Additive: sucrose monolaurate, ibuprofen]
- Amount released [%] [1]: 0.0%
- Amount released [%] [2]: 85.2%
- Amount released [%] [3]: 98.8%
- Amount released [%] [4]: 100.0%
- Amount released [%] [5]: 100.0%
- Amount released [%] [6]: 100.0%
- Amount released [%] [7]: 100.0%
- Amount released [%] [8]: 0.0%
- Amount released [%] [9]: 85.9%
- Amount released [%] [10]: 98.4%
- Amount released [%] [11]: 99.5%
- Amount released [%] [12]: 99.9%
- Amount released [%] [13]: 100.7%
- Amount released [%] [14]: 100.6%
- Amount released [%] after 2 min: 85.2%

Compound: CC(C)Cc1ccc(C(C)C(=O)O)cc1 (stereo not drawn) [Commercial article, ibuprofen]
- Amount released [%] [1]: 0.0%
- Amount released [%] [2]: 15.1%
- Amount released [%] [3]: 36.9%
- Amount released [%] [4]: 59.5%
- Amount released [%] [5]: 73.9%
- Amount released [%] [6]: 98.0%
- Amount released [%] [7]: 99.0%
- Amount released [%] [8]: 0.0%
- Amount released [%] [9]: 15.1%
- Amount released [%] [10]: 36.9%
- Amount released [%] [11]: 59.5%
- Amount released [%] [12]: 73.9%
- Amount released [%] [13]: 98.0%
- Amount released [%] [14]: 99.0%
- Amount released [%] after 2 min: 15.1%
- Time after which a 100% release / dissolution is seen [15]: > 15 min
- Release / dissolution within (after) 2 minutes [15]: < 20%

Compound: CC(C)Cc1ccc(C(C)C(=O)O)cc1 (stereo not drawn) [Example 1, ibuprofen]
- Time after which a 100% release / dissolution is seen [15]: 15 min

Compound: COc1ccc2cc([C@H](C)C(=O)O)ccc2c1 [Example 2, naproxen]
- Time after which a 100% release is seen [15]: 15 s

Compound: CC(C)Cc1ccc(C(C)C(=O)O)cc1 (stereo not drawn) [Example 4, ibuprofen]
- Time after which a 100% release / dissolution is seen [15]: 5 min
- Release / dissolution within (after) 2 minutes [15]: 85%

Compound: CC(C)Cc1ccc(C(C)C(=O)O)cc1 (stereo not drawn) [Example 5, ibuprofen]
- Time after which a 100% release / dissolution is seen [15]: 5 min
- Release / dissolution within (after) 2 minutes [15]: 85%

Compound: CC(C)Cc1ccc(C(C)C(=O)O)cc1 (stereo not drawn) [Example 6, ibuprofen]
- Time after which a 100% release / dissolution is seen [15]: 5 min
- Release / dissolution within (after) 2 minutes [15]: 85%

Compound: CC(C)Cc1ccc(C(C)C(=O)O)cc1 (stereo not drawn) [Example 7, ibuprofen]
- Time after which a 100% release / dissolution is seen [15]: 5 min
- Release / dissolution within (after) 2 minutes [15]: 85%

Compound: CC(C)Cc1ccc(C(C)C(=O)O)cc1 (stereo not drawn) [Example 11, ibuprofen]
- Rate of dissolution (in words): comparatively good rate of dissolution
- Active compound dissolved after 5 min: 81%
- Active compound dissolved after 8 min: 90%

Compound: CC(C)Cc1ccc(C(C)C(=O)O)cc1 (stereo not drawn) [Example 12, ibuprofen]
- Rate of dissolution (in words): good rate of dissolution
- Active compound dissolved after 5 min: 87%
- Active compound dissolved after 8 min: 95%

Compound: CC(C)Cc1ccc(C(C)C(=O)O)cc1 (stereo not drawn) [Example 13, ibuprofen]
- Rate of dissolution (in words): good rate of dissolution
- Active compound dissolved after 5 min: 92%
- Active compound dissolved after 8 min: 100%

Compound: CC(C)Cc1ccc(C(C)C(=O)O)cc1 (stereo not drawn) [Example 14, ibuprofen]
- Rate of dissolution (in words): good rate of dissolution

Source: patent publication US20050003000A1, “Method for the formation of ibuprofen crystals” (priority 2001, published 2005)
